Earlier results, collected in paper PMC11954708 (Clinical Pharmacokinetics, 2025).

Tests used:
[1] = for Positive FE in vivo: Yes/No; for AUC ratio Observed: fed/fasted in vivo
[2] = total body clearance value
[3] = system: CYP3A4 or UGT

SMILES	Positive FE in vivo [1]	AUC ratio Observed [1]	CL [2]	CYP3A4 or UGT substrate? [3]	CL (po) [2]
NC(=O)N1c2ccccc2C=Cc2ccccc21 [Carbamazepine]	Yes	1.12	2.7 [50] l/h		
COC(=O)[C@H](c1ccccc1Cl)N1CCc2sccc2C1 [Clopidogrel]	Yes		84 [52] l/h		
C[C@H]1O[C@@H](O[C@H]2[C@@H](O)C[C@H](O[C@H]3[C@@H](O)C[C@H](O[C@H]4CC[C@@]5(C)[C@H](CC[C@@H]6[C@@H]5C[C@@H](O)[C@]5(C)[C@@H](C7=CC(=O)OC7)CC[C@]65O)C4)O[C@@H]3C)O[C@@H]2C)C[C@H](O)[C@@H]1O [Digoxin]			5.28 [51] l/h	No	

More lines, now with the values ahead:

Positive FE in vivo [1]	AUC ratio Observed [1]	CL [2]	CYP3A4 or UGT substrate? [3]	CL (po) [2]	SMILES
Yes	1.28			9.4 (po) [51] l/h	O=C1Nc2ccc(Cl)cc2[C@@](C#CC2CC2)(C(F)(F)F)O1 [Efavirenz]
No					CCOC(=O)C1=C(C)NC(C)=C(C(=O)OC)C1c1cccc(Cl)c1Cl (centres unmarked) [Felodipine]
No			No	21.23 (po) [51] l/h	Cc1cccc(Nc2ccccc2C(=O)O)c1C [Mefenamic acid]
